Our source for the IC50 values is patent US12624034B2, “Non-covalent modifiers of AKT1 and uses thereof” (Terremoto Biosciences, Inc., priority 2023, dated 2026).

One experiment addresses T1, AKT1 E17K (Homo sapiens, UniProt P31749, E17K).
T1 construct: expressed in transfected cells; host or cells: HEK293
The experiment is described as follows: Live cell AKT1 E17K target engagement by NanoBRET competitive probe displacement in HEK293 cells. The format is binding. The following applies: 2 h at 37° C. The method, then:
Determining live cell AKT1 E17K, AKT1 WT, and AKT2 target engagement by NanoBRET competitive probe displacement. Live cell target engagement assays were performed as described (Vasta, J. D. et al. Cell Chem Biol 2018, 25(11), 206-214). Briefly, HEK293 cells were transfected with plasmids encoding kinase-NanoLuciferase fusion proteins overnight. Cells were then treated with serial dilutions of compound and an ˜EC50 concentration of fluorescently-tagged ATP-competitive tracer (Promega). After incubation for 2 h at 37° C., luciferase substrate and extracellular luciferase inhibitor were added to all wells, and luminescent intensity at 460 nm and 600 nm were measured on a multimode plate-reader. The ratio of E600/E460 was calculated to give the tracer engagement signal (BRET). IC50 values were calculated by fitting BRET values to a log(inhibitor) vs. response Hill equation.

Experiment [1] has as its system LAPC4 prostate cancer cells, which express the AKT1 E17K allele. Briefly: Antiproliferative effects in LAPC4 cells (CellTiter Glo, 72 h). The format is cell-based. To be noted: read-out: LAPC4 proliferation IC50. The method, then:
Antiproliferative Effects in LAPC4 Cells.
LAPC4 prostate cancer cells (Klein, K. A. et al. Nat Med 1997, 3, 402-408), which express the AKT1 E17K allele, were grown in IMDM media (Hyclone) supplemented with 12% FBS+1% P/S. To assess compound effects on growth, 1,000 cells/well were seeded in 384 well assay plates, incubated with compound dilutions dissolved in DMSO. After 72 h, intracellular ATP content was assessed with CellTiter Glo reagent (Promega) according to the manufacturer's instructions. IC50 values were calculated by fitting luminescence values to a log(inhibitor) vs. response Hill equation.
(In general: Cellular ATP, detected with luciferase, serves as a proxy for viable cell number.)

For the next experiment, the target named is T2, AKT2 (Homo sapiens, UniProt P31751).
T2 construct: expressed in transfected cells; host or cells: HEK293
Briefly: Live cell AKT2 target engagement by NanoBRET competitive probe displacement in HEK293 cells. The format is binding. The following applies: 2 h at 37° C., read-out: AKT2 IC50. Background: Bioluminescence resonance energy transfer reports proximity on the nanometre scale.

The next experiment addresses T3, AKT1 WT (Homo sapiens, UniProt P31749).
T3 construct: expressed in transfected cells; host or cells: HEK293
Briefly: Live cell AKT1 WT target engagement by NanoBRET competitive probe displacement in HEK293 cells. The format is binding. To be noted: 2 h at 37° C., read-out: AKT1 WT IC50.

The mark [2] stands for this setting: NanoBRET live cell target engagement, HEK293 cells.
The mark [3] stands for this setting: NanoBRET competitive probe displacement, live HEK293 cells.

Like-named read-outs stand apart in the source and are kept apart here.

T1 sequence (P31749 whole entry E17K): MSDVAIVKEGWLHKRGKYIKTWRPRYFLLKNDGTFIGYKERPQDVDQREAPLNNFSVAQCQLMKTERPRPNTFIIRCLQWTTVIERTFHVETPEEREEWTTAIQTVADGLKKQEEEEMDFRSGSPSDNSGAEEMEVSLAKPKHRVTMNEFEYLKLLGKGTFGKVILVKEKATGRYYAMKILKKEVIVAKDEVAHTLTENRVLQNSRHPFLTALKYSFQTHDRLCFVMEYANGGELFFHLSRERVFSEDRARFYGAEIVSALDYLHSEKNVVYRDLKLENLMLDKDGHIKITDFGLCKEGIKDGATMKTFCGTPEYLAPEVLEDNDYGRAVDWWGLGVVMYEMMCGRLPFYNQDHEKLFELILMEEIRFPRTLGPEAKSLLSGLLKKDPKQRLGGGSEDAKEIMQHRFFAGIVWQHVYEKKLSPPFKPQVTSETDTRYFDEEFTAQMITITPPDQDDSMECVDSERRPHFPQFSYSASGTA
T2 sequence (P31751 whole entry): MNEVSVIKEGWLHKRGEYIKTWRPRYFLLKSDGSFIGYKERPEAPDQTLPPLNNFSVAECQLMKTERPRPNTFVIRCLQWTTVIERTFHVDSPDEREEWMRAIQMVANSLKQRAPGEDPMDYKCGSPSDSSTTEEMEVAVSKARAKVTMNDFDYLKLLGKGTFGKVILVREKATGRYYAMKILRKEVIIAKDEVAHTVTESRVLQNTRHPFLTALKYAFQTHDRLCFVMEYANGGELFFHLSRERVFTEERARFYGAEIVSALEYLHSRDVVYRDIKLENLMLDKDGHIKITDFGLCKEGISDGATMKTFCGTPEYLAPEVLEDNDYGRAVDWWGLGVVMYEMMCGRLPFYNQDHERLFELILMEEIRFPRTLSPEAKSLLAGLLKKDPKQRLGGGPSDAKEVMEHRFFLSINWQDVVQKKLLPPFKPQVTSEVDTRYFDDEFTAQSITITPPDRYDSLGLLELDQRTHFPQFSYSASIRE
T3 sequence (P31749 whole entry): as the sequence (P31749 whole entry E17K) above, with K17E counted along it

In the case of `Nc1ncccc1-c1nc2ccc(-n3cccn3)nc2n1-c1ccc2c(c1)CC[C@@H]2NC1CCN(c2ccccn2)C1` (stereo partly drawn) [Compound 388], the IC50 worked out at 247 nM on AKT1 E17K (setting [2]), 3140 nM in experiment [1], 674 nM on AKT2 (setting [2]) and 28.7 nM at AKT1 WT (setting [2]).
On to `Nc1ncccc1-c1nc2ccc(-n3nccn3)nc2n1-c1ccc2c(c1)CC[C@@H]2NC(=O)c1cnc(C(F)F)s1` [Compound 427], for which the IC50 on AKT1 E17K (setting [3]) turned out to be 101 nM; in experiment [1] (Homo sapiens, LAPC4, 72 h) it was 1710 nM; on AKT2 (setting [3]), 1080 nM; at AKT1 WT (setting [3]) it was 9.56 nM.
Turning to `Cc1ccc(C(=O)N[C@H]2CCc3cc(-n4c(-c5cccnc5N)nc5ccc(-n6ccc(F)n6)nc54)ccc32)cn1` [Compound 52, (S)—N-(5-(2-(2-aminopyridin-3-yl)-5-(3-fluoro-1H-pyrazol-1-yl)-3H-imidazo[4,5-b]pyridin-3-yl)-2,3-dihydro-1H-inden-1-yl)-6-methylnicotinamide], the IC50 stood at 357 nM on AKT1 E17K (setting [2]); 915 nM in experiment [1] (Homo sapiens, LAPC4, 72 h); 128 nM on AKT2 (setting [2]); 11.6 nM at AKT1 WT (setting [2]).
Turning to `Nc1ncccc1-c1nc2ccc(-n3cccn3)nc2n1-c1ccc2c(c1)CC[C@@H]2NC(=O)c1ccnc2c1CCO2` [Compound 225], the IC50 on AKT1 E17K (setting [2]) is 408 nM; in experiment [1] (Homo sapiens, LAPC4, 72 h), 8430 nM; on AKT2 (setting [2]), 343 nM; at AKT1 WT (setting [2]) it was 11.3 nM.
For `Nc1ncccc1-c1nc2ccc(-n3cccn3)nc2n1-c1ccc2c(c1)CC[C@@H]2NC(=O)c1cncnc1C(F)F` [Compound 116], the IC50 on AKT1 E17K (setting [2]) was determined as 157 nM; in experiment [1] (Homo sapiens, LAPC4, 72 h), 5240 nM; on AKT2 (setting [2]), 303 nM; on AKT1 WT (setting [2]), 10.2 nM.
For `Nc1ncccc1-c1nc2ccc(-n3nccn3)nc2n1-c1ccc2c(c1)CC[C@@H]2NC1CCN(c2ccccn2)CC1` [Compound 366], the IC50 on AKT1 E17K (setting [2]) is 818 nM; in experiment [1] (Homo sapiens, LAPC4, 72 h), above 10000 nM; on AKT2 (setting [2]) it was 4380 nM; on AKT1 WT (setting [2]), 70.9 nM.
As for `Nc1ncccc1-c1nc2ccc(-n3cccn3)nc2n1-c1ccc2c(c1)CC[C@@H]2NC1CCN(C(=O)c2ccncc2)CC1` [Compound 360], the IC50 at AKT1 E17K (setting [2]) was above 1000 nM; in experiment [1] (Homo sapiens, LAPC4, 72 h), above 10000 nM; at AKT2 (setting [2]), 8140 nM; at AKT1 WT (setting [2]), 483 nM.
For the molecule `Nc1ncccc1-c1nc2ccc(-n3cccn3)nc2n1-c1ccc2c(c1)CC[C@@H]2NC(=O)c1cncs1` [Compound 14, (S)—N-(5-(2-(2-aminopyridin-3-yl)-5-(1H-pyrazol-1-yl)-3H-imidazo[4,5-b]pyridin-3-yl)-2,3-dihydro-1H-inden-1-yl)thiazole-5-carboxamide], the IC50 was found to be 22.9 nM on AKT1 E17K (setting [2]); 1290 nM in experiment [1] (Homo sapiens, LAPC4, 72 h); 264 nM at AKT2 (setting [2]); 14.5 nM on AKT1 WT (setting [2]).
As for `Nc1ncccc1-c1nc2ccc(-n3cccn3)nc2n1-c1ccc2c(c1)CC[C@@H]2NC1CCN(c2cccnc2)CC1` [Compound 368], the IC50 on AKT1 E17K (setting [2]) was 406 nM; in experiment [1] (Homo sapiens, LAPC4, 72 h) it was 6620 nM; on AKT2 (setting [2]), 768 nM; at AKT1 WT (setting [2]), 36.8 nM.
`Cn1ccc(N2CCC(N[C@H]3CCc4cc(-n5c(-c6cccnc6N)nc6ccc(-n7cccn7)nc65)ccc43)CC2)n1` [Compound 276]: the IC50 at AKT1 E17K (setting [2]) was above 1000 nM; in experiment [1] (Homo sapiens, LAPC4, 72 h) it was above 10000 nM; on AKT2 (setting [2]), 1200 nM; at AKT1 WT (setting [2]), 47.4 nM.
With `COc1cc(C(=O)N[C@H]2CCc3cc(-n4c(-c5cccnc5N)nc5ccc(-n6nccn6)nc54)ccc32)cnc1C(F)F` [Compound 364], the IC50 at AKT1 E17K (setting [2]) came to 260 nM; in experiment [1] (Homo sapiens, LAPC4, 72 h), 2320 nM; on AKT2 (setting [2]), 1110 nM; on AKT1 WT (setting [2]) it was 20.7 nM.
`Nc1ncccc1-c1nc2ccc(-n3cccn3)nc2n1-c1ccc2c(c1)CC(F)[C@@H]2NC1CCN(C(=O)C2CC2)CC1` (single isomer, unassigned) [Compound 385, 3-{3-[(1R,2*)-1-[(1-cyclopropanecarbonylpiperidin-4-yl)amino]-2-fluoro-2,3-dihydro-1H-inden-5-yl]-5-(pyrazol-1-yl)imidazo[4,5-b]pyridin-2-yl}pyridin-2-amine]: the IC50 was above 856 nM at AKT1 E17K (setting [2]); above 7500 nM in experiment [1] (Homo sapiens, LAPC4, 72 h); 1790 nM at AKT2 (setting [2]); 34.3 nM on AKT1 WT (setting [2]).
